Results published in article PMC3664191 (Bioorganic & medicinal chemistry letters, 2013).

What was measured:
Clk3 = Clk3 (Homo sapiens, UniProt P49761); settings: cited from earlier work
[1] = biological target: dopamine transporter (DAT) (Homo sapiens, UniProt Q01959); assay: Ricerca LeadProfiling off-target screen; assay type: binding; settings: read-out: inhibition or stimulation, dopamine transporter (DAT)
[2] = biological target: norepinephrine transporter (NET) (Homo sapiens, UniProt P23975); assay: Ricerca LeadProfiling off-target screen; assay type: binding; settings: read-out: inhibition or stimulation, norepinephrine transporter (NET)
[3] = phosphate buffered saline (PBS) and assay media
adrenergic α2A = biological target: T1, adrenergic α2A (Homo sapiens, UniProt P08913); assay: Ricerca LeadProfiling off-target screen; settings: read-out: inhibition or stimulation, adrenergic α2A
T1 sequence (P08913 1-465): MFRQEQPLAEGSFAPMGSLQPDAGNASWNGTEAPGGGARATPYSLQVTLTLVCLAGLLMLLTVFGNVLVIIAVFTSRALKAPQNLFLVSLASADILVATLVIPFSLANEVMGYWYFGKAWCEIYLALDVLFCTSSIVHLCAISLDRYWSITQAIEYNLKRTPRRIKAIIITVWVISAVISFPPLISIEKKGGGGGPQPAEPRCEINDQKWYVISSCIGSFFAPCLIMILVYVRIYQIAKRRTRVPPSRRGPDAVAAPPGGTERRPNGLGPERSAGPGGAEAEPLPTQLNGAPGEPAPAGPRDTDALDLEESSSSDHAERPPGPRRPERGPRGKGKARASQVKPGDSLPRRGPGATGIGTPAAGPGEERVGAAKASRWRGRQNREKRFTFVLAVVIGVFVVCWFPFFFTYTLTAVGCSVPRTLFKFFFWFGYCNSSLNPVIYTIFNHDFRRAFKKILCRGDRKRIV

Clk4 = Clk4 (Homo sapiens, UniProt Q9HAZ1); assay: Kinase Glo; assay type: biochemical; settings: matrix library, Kinase Glo (Promega) assay, Figure 4
CSNK1E = CSNK1E (Homo sapiens, UniProt P49674); assay: DiscoverRX KINOMEscan binding; settings: read-out: % control CSNK1E
DRAK = assay: DiscoverRX KINOMEscan binding; settings: 10 μM

Sequence of Clk4 (Q9HAZ1 whole entry, species assumed): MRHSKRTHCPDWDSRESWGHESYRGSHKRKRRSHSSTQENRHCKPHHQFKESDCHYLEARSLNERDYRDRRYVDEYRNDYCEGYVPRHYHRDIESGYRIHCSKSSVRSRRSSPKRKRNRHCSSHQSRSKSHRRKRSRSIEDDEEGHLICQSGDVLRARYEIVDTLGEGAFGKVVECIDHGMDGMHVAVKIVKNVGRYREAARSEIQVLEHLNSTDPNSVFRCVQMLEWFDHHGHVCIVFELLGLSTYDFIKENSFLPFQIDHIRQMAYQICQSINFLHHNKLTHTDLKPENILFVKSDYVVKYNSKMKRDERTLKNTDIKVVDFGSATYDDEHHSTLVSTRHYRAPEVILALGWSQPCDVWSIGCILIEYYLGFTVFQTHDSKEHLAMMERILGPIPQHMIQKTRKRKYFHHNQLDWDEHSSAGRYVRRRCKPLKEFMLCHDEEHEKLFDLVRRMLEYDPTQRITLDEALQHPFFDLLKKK
Sequence of Clk3 (P49761 whole entry): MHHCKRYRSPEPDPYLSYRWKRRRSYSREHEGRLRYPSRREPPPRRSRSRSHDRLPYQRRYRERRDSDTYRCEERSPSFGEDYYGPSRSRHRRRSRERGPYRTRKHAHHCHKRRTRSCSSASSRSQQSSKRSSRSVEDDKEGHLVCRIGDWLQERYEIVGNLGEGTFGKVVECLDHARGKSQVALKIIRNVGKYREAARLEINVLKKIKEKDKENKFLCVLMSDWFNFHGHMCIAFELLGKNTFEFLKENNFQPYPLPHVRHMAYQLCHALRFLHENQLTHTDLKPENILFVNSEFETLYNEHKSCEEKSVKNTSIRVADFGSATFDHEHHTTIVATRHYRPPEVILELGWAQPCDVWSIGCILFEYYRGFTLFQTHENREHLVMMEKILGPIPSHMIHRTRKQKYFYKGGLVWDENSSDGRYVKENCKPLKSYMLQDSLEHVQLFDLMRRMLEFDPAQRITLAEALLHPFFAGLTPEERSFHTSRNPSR
Sequence of dopamine transporter (DAT) (Q01959 whole entry): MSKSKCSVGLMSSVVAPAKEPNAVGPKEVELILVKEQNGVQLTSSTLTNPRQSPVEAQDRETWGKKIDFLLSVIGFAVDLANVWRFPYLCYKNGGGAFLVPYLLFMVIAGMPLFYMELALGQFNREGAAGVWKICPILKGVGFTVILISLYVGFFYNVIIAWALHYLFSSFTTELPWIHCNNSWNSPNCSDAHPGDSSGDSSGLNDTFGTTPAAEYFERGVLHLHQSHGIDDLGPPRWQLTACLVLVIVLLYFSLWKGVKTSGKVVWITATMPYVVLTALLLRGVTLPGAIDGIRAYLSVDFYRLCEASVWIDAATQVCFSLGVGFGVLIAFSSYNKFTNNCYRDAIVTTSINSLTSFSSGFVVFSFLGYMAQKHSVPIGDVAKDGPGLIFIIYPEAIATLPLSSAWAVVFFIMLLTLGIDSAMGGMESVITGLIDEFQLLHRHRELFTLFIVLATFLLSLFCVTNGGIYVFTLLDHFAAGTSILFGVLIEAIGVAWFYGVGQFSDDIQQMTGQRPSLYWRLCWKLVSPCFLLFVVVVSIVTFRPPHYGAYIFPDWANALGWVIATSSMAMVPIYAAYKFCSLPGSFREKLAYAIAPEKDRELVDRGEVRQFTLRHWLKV
Sequence of CSNK1E (P49674 whole entry): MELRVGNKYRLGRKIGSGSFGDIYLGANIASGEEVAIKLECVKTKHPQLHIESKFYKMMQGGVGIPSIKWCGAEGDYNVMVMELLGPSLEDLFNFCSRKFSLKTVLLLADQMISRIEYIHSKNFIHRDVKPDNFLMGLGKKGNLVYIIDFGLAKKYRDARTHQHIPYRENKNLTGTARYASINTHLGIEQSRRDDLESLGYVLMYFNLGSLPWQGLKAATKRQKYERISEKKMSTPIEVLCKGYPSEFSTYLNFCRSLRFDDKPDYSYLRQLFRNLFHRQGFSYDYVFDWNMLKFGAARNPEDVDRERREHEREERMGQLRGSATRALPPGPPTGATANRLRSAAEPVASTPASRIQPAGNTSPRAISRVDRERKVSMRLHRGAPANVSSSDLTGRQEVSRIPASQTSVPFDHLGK
Sequence of norepinephrine transporter (NET) (P23975 whole entry): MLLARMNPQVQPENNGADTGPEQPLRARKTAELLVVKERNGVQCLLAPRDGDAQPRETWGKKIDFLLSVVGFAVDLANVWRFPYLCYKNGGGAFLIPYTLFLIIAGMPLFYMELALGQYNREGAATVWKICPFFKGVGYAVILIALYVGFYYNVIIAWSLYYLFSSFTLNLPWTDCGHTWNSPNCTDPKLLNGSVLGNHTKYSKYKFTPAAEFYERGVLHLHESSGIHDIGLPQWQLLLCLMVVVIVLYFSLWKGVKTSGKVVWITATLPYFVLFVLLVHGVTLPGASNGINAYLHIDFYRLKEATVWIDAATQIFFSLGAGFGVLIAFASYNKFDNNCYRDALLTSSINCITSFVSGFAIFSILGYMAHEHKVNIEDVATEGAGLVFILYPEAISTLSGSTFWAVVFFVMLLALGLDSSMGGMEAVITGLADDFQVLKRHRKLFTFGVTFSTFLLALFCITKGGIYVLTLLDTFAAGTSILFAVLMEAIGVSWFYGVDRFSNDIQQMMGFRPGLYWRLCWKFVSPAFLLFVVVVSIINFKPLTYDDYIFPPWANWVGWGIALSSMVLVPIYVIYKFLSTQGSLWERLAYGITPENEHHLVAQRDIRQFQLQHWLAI

In the case of `O=C1NC(Nc2ccccc2)=N/C1=C\c1ccc2c(c1)OCO2` [Leucettine L41], the IC50 (Clk3; read-out: Clk3 IC50) is given as 4.5 µM.

With `Clc1cc(Cl)cc(CNc2ncncc2-c2ccc3c(c2)OCO3)c1` [Compound 35] the inhibition at 10 µM [1] was greater than 50%, the inhibition at 10 µM [2] was greater than 50% and the “solubility” value [3] was “limited”. For the same compound, the “cell permeability” value (Cell permeability) was “moderately cell permeable”, the “plasma stability” value (Plasma stability, mouse) was “stable” and the “plasma stability” value (Plasma stability, human) was “stable”. The inhibition at 10 µM (adrenergic α2A) was greater than 50%.

In the case of `Clc1ccc(CNc2ccnc(-c3ccc4c(c3)OCO4)n2)cc1` [Compound A4], the “activity against Clk4” value (Clk4) is reported as “active”.

For `CCN1/C(=C/C(C)=O)Sc2ccc(OC)cc21` [TG003], the “Clk3 activity” value (Clk3) is given as “inactive”.

With `COc1cccc(-c2nccc(NCc3ccc(Cl)c(Cl)c3)n2)c1` [Compound C2] the “activity against Clk4” value (Clk4) was “active”.

With `Clc1ccc(CNc2nccc(-c3ccc4[nH]ncc4c3)n2)cc1Cl` [Compound 22] the remaining binding at 10 µM (CSNK1E) was less than 10% and the “% control DRAK” value (DRAK) was less than 10 % control.

In the case of `Clc1ccc(CNc2ccnc(-c3ccc4c(c3)OCO4)n2)cc1Cl` [Compound A2], the “activity against Clk4” value (Clk4) is reported as “active”.

For `COc1ccc(-c2nccc(NCc3ccc(Cl)cc3)n2)cc1` [Compound G4], the “activity against Clk4” value (Clk4) was “active”.

For `COc1ccc(-c2nccc(NCc3ccc(Cl)c(Cl)c3)n2)cc1` [Compound G2], the “activity against Clk4” value (Clk4) was “active”.
